Source: ChEMBL document CHEMBL3044907, “Sensitivity of Fusarium verticillioides isolates from rice to a novel cyanoacrylate fungicide” (Crop Prot, 2012)

Key:
Fusarium verticillioides [1] = experiment: (§1) Fungicidal activity against Fusarium verticilliodes isolate YZ01 in rice seeds harvested from bakane diseased plants assessed as number of seedlings abnormally elongated or exhibiting symptoms of damping-off at 6.25 ug/ml at 30 degC incubated for 72 hr measured after 3 days under greenhouse trials (reference value: 33.6%); format: functional
Fusarium verticillioides [2] = experiment: as §1, with “JS09” for “YZ01”, “8.33” for “6.25”, “32.6%)” for “33.6%)”; format: functional
Fusarium verticillioides [3] = experiment: as §1, with “JS08” for “YZ01”, “8.33” for “6.25”, “13.0%)” for “33.6%)”; format: functional
Fusarium verticillioides [4] = experiment: as §1, with “N06” for “YZ01”, “25” for “6.25”, “9.6%)” for “33.6%)”; format: functional
Fusarium verticillioides [5] = experiment: as §1, with “N03” for “YZ01”, “25” for “6.25”, “36.1%)” for “33.6%)”; format: functional
Fusarium verticillioides [6] = experiment: as §1, with “YZ12” for “YZ01”, “25” for “6.25”, “45.8%)” for “33.6%)”; format: functional
Fusarium verticillioides [7] = experiment: as §1, with “YZ03” for “YZ01”, “25” for “6.25”, “21.3%)” for “33.6%)”; format: functional
Fusarium verticillioides [8] = experiment: as §1, with “N03” for “YZ01”, “36.1%)” for “33.6%)”; format: functional
Fusarium verticillioides [9] = experiment: as §1, with “N02” for “YZ01”, “41.2%)” for “33.6%)”; format: functional
Fusarium verticillioides [10] = experiment: as §1, with “YZ13” for “YZ01”, “26.8%)” for “33.6%)”; format: functional
Fusarium verticillioides [11] = experiment: as §1, with “YZ12” for “YZ01”, “45.8%)” for “33.6%)”; format: functional
Fusarium verticillioides [12] = experiment: as §1, with “YZ11” for “YZ01”, “33.7%)” for “33.6%)”; format: functional
Fusarium verticillioides [13] = experiment: as §1, with “YZ09” for “YZ01”, “17.5%)” for “33.6%)”; format: functional
Fusarium verticillioides [14] = experiment: as §1, with “YZ07” for “YZ01”, “43.2%)” for “33.6%)”; format: functional
Fusarium verticillioides [15] = experiment: as §1, with “YZ04” for “YZ01”, “44.2%)” for “33.6%)”; format: functional
Fusarium verticillioides [16] = experiment: as §1, with “JS06” for “YZ01”, “12.5” for “6.25”, “25.2%)” for “33.6%)”; format: functional
Fusarium verticillioides [17] = experiment: as §1, with “JS06” for “YZ01”, “25.2%)” for “33.6%)”; format: functional
Fusarium verticillioides [18] = experiment: as §1, with “JS04” for “YZ01”, “12.5” for “6.25”, “16.2%)” for “33.6%)”; format: functional
Fusarium verticillioides [19] = experiment: as §1, with “JS01” for “YZ01”, “12.5” for “6.25”, “32.5%)” for “33.6%)”; format: functional
Fusarium verticillioides [20] = experiment: as §1, with “N02” for “YZ01”, “12.5” for “6.25”, “41.2%)” for “33.6%)”; format: functional
Fusarium verticillioides [21] = experiment: as §1, with “JS06” for “YZ01”, “25” for “6.25”, “25.2%)” for “33.6%)”; format: functional
Fusarium verticillioides [22] = experiment: as §1, with “JS04” for “YZ01”, “8.33” for “6.25”, “16.2%)” for “33.6%)”; format: functional
Fusarium verticillioides [23] = experiment: as §1, with “N05” for “YZ01”, “8.33” for “6.25”, “6.2%)” for “33.6%)”; format: functional
Fusarium verticillioides [24] = experiment: as §1, with “N04” for “YZ01”, “8.33” for “6.25”, “14.5%)” for “33.6%)”; format: functional
Fusarium verticillioides [25] = experiment: as §1, with “N02” for “YZ01”, “8.33” for “6.25”, “41.2%)” for “33.6%)”; format: functional
Fusarium verticillioides [26] = experiment: as §1, with “N01” for “YZ01”, “8.33” for “6.25”, “27.4%)” for “33.6%)”; format: functional
Fusarium verticillioides [27] = experiment: as §1, with “YZ26” for “YZ01”, “8.33” for “6.25”, “49.3%)” for “33.6%)”; format: functional
Fusarium verticillioides [28] = experiment: as §1, with “YZ10” for “YZ01”, “12.5” for “6.25”, “49.2%)” for “33.6%)”; format: functional
Fusarium verticillioides [29] = experiment: as §1, with “YZ06” for “YZ01”, “12.5” for “6.25”, “45.3%)” for “33.6%)”; format: functional
Fusarium verticillioides [30] = experiment: as §1, with “YZ05” for “YZ01”, “12.5” for “6.25”, “33.3%)” for “33.6%)”; format: functional
Fusarium verticillioides [31] = experiment: as §1, with “YZ04” for “YZ01”, “12.5” for “6.25”, “44.2%)” for “33.6%)”; format: functional
Fusarium verticillioides [32] = experiment: as §1, with “25” for “6.25”; format: functional
Oryza sativa = experiment: Effect on germination of healthy Oryza sativa (rice) seed cultivar Fengliangyou 4 at 6.25 to 25 ug/ml at 25 degC after 72 hr; format: ADME, organism-based; details: in vivo
Fusarium verticillioides [33] = experiment: as §1, with “YZ11” for “YZ01”, “8.33” for “6.25”, “33.7%)” for “33.6%)”; format: functional
Fusarium verticillioides [34] = experiment: as §1, with “YZ06” for “YZ01”, “8.33” for “6.25”, “45.3%)” for “33.6%)”; format: functional
Fusarium verticillioides [35] = experiment: as §1, with “JS02” for “YZ01”, “24.9%)” for “33.6%)”; format: functional

SMILES: CCOC(=O)/C(C#N)=C(/N)c1ccccc1
- Activity (Fusarium verticillioides [1]): 3.7%
- Activity (Fusarium verticillioides [2]): 1.2%
- Activity (Fusarium verticillioides [3]): 0%
- Activity (Fusarium verticillioides [4]): 0%
- Activity (Fusarium verticillioides [5]): 0%
- Activity (Fusarium verticillioides [6]): 0%
- Activity (Fusarium verticillioides [7]): 0%
- Activity (Fusarium verticillioides [8]): 0.5%
- Activity (Fusarium verticillioides [9]): 2.2%
- Activity (Fusarium verticillioides [10]): 0.8%
- Activity (Fusarium verticillioides [11]): 3.2%
- Activity (Fusarium verticillioides [12]): 4.5%
- Activity (Fusarium verticillioides [13]): 2.8%
- Activity (Fusarium verticillioides [14]): 1.6%
- Activity (Fusarium verticillioides [15]): 1.3%
- Activity (Fusarium verticillioides [16]): 0%
- Activity (Fusarium verticillioides [17]): 1.7%
- Activity (Fusarium verticillioides [18]): 0%
- Activity (Fusarium verticillioides [19]): 0%
- Activity (Fusarium verticillioides [20]): 0%
- Activity (Fusarium verticillioides [21]): 0%
- Activity (Fusarium verticillioides [22]): 1%
- Activity (Fusarium verticillioides [23]): 0%
- Activity (Fusarium verticillioides [24]): 0%
- Activity (Fusarium verticillioides [25]): 0%
- Activity (Fusarium verticillioides [26]): 0%
- Activity (Fusarium verticillioides [27]): 1.2%
- Activity (Fusarium verticillioides [28]): 0%
- Activity (Fusarium verticillioides [29]): 0%
- Activity (Fusarium verticillioides [30]): 0%
- Activity (Fusarium verticillioides [31]): 0%
- Activity (Fusarium verticillioides [32]): 0%
- Activity (Oryza sativa): Non-toxic
- Activity (Fusarium verticillioides [33]): 0.8%
- Activity (Fusarium verticillioides [34]): 0%
- Activity (Fusarium verticillioides [35]): 2%
